# Measurements from patent US8574856B2, “Methods for determining the efficiency of a therapeutic” (Companion Diagnostics Inc., priority 2010, dated 2013).
# Values joined by “and” are separate entries in the source; they are usually repeats but may differ in a detail not shown here. Equal entries are not always repeated.
# What was measured:
# peroxidase = experiment: Peroxidase assay in saliva (Amplex Red); format: biochemical; conditions: 500 ppm; pooled or unpooled saliva; 30 minutes; FIGS. 30-33
# Description: To determine the effect of various GRAS compounds as inhibitors of peroxidase activity, a standard assay using Amplex® Red (Life Technologies), which releases a fluorescent oxidation product.
# The test compounds, such as GRAS materials or cocktails of same, were prepared at a concentration of 500 ppm in distilled water. For the assay, 50 μl samples of test compounds were mixed with 20-30 μl of saliva (either “pooled” or “unpooled”) prior to the addition of Amplex® Red. […] Reactions were allowed to run for 30 minutes during these assays.
# galactose oxidase = conditions: dilute (3.5%) saliva; FIG. 17
# lysozyme = target: T1, lysozyme (Homo sapiens, UniProt P61626); experiment: Lysozyme inhibition saliva screening, dilute (3.5%) saliva; format: biochemical; conditions: FIG. 16
# T1 sequence (P61626 19-148): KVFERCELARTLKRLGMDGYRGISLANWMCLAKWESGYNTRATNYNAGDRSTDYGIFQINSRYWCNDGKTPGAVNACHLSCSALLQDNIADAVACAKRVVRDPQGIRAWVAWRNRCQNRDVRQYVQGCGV
# Description: Further details of these five compounds may also be seen in Table 5.
# α-amylase [1] = target: T2, α-amylase (Homo sapiens, UniProt P0DUB6); experiment: α-Amylase inhibition saliva screening, dilute (3.5%) saliva; format: biochemical; conditions: for absorbance at 405 nm, Ave / absorbance at 405 nm, single readings: test compound prepared at 5,000 ppm, 37° C.; for α-Amylase Inhibitor Activity: dilute (3.5%) saliva, FIG. 14
# T2 sequence (P0DUB6 16-511): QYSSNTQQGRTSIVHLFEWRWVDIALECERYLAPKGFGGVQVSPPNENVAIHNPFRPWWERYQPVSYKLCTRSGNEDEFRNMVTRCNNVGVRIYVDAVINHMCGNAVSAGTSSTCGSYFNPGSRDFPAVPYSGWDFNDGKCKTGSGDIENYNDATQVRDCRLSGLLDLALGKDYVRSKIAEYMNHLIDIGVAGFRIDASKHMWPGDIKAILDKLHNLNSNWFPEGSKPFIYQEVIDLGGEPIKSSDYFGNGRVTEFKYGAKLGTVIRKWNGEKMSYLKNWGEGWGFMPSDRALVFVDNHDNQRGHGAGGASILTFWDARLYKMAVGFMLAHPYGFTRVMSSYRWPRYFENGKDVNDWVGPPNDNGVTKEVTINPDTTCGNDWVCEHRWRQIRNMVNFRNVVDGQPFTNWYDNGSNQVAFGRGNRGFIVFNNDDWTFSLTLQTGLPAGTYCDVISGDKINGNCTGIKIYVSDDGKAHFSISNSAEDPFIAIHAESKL
# Description: Further details of these five compounds may also be seen in Table 4.
# α-amylase [2] = target: T2, α-amylase; conditions: 100% saliva samples; FIG. 15
# Description: Enzymatic activity of α-amylase on the substrate yields 2-chloro-p-nitrophenol, which can be measured spectrophotometrically at 405 nm. The amount of α-amylase activity present in the experimental sample is directly proportional to the increase in absorbance at 405 nm.
compound,measurement,setting,value
"Cn1c(=O)c2c(ncn2C)n(C)c1=O [CDI-33, Caffeine]",peroxidase inhibition,peroxidase,showed significant peroxidase inhibition capabilities
"COc1ccc(O)c(C(C)(C)C)c1 [CDI-39, 3-tert--butyl-hydroxyanisole]",Galactose Oxidase Inhibitor Activity,galactose oxidase,shown to have Galactose Oxidase Inhibitor Activity
same,peroxidase inhibition,peroxidase,showed significant peroxidase inhibition capabilities
"O=C(O)c1ccccc1 [CDI-40, Benzoic acid]",Galactose Oxidase Inhibitor Activity,galactose oxidase,shown to have Galactose Oxidase Inhibitor Activity
same,Lysozyme Inhibitor Activity,lysozyme,shown to have Lysozyme Inhibitor Activity
"CC(=O)O [CDI-47, Acetic acid]",Galactose Oxidase Inhibitor Activity,galactose oxidase,shown to have Galactose Oxidase Inhibitor Activity
same,Lysozyme Inhibitor Activity,lysozyme,shown to have Lysozyme Inhibitor Activity
Aluminum potassium sulfate dodecahydrate [CDI-42],Galactose Oxidase Inhibitor Activity,galactose oxidase,shown to have Galactose Oxidase Inhibitor Activity
same,peroxidase inhibition,peroxidase,showed significant peroxidase inhibition capabilities
same,"absorbance at 405 nm, Ave",α-amylase [1]; 0 min,0.92
same,"absorbance at 405 nm, single readings",α-amylase [1]; 0 min,0.80 and 0.90 and 0.84
same,"absorbance at 405 nm, Ave",α-amylase [1]; 5 min,1.85
same,"absorbance at 405 nm, single readings",α-amylase [1]; 5 min,1.80
same,"absorbance at 405 nm, Ave",α-amylase [1]; 15 min,2.29
same,α-Amylase Inhibitor Activity,α-amylase [1],shown to have α-Amylase Inhibitor Activity
same,inhibition of α-Amylase,α-amylase [2],shown to inhibit α-Amylase
Aluminum sulfate hydrate [CDI-34],"absorbance at 405 nm, Ave",α-amylase [1]; 0 min,0.40
same,"absorbance at 405 nm, single readings","α-amylase [1]; 0 min, sulfate hydrate",0.40 and 0.36 and 0.45
same,"absorbance at 405 nm, Ave",α-amylase [1]; 5 min,0.50
same,"absorbance at 405 nm, single readings","α-amylase [1]; 5 min, sulfate hydrate",0.49 and 0.50 and 0.52
same,"absorbance at 405 nm, Ave",α-amylase [1]; 15 min,0.56
same,"absorbance at 405 nm, single readings","α-amylase [1]; 15 min, sulfate hydrate",0.53 and 0.61 and 0.54 and 0.56
same,α-Amylase Inhibitor Activity,α-amylase [1],shown to have α-Amylase Inhibitor Activity
same,inhibition of α-Amylase,α-amylase [2],shown to inhibit α-Amylase
